Where a SMILES comes first, the peptide text is derived from it. Bridges are numbered along the chain shown (N, C = ends).
What was measured:
[1] = Turbidity assay (absorbance at 350 nm); assay type: physicochemical; conditions: qualitative, tetra-lysine-tagged compared with K* peptide
Method: Solutions with appropriate buffering agent at pH 4.0–8.0 as specified, NaCl as required and containing 40 μM ThT were prepared in Corning^TM black clear bottom 96-well plates (cat no. 3631). Peptides and proteins were diluted from concentrated stocks into buffer immediately prior to measurement. […] Plates were sealed with optically clear sealing film (Corning^TM, cat no. 6575) and loaded into a BMG POLARstar Omega microplate reader maintained at RT or 37 °C. Plates were shaken for 30 s at 700 rpm before first read (unless otherwise specified), and wells were excited at 440 nm, with fluorescence emission measured at 480 nm (filters +/– 10 nm). The gain was set at 1–5% from a buffer and ThT-containing sample. Assays were continued until fluorescence emission plateaued. Turbidity assays were performed concurrently to ThT assays, with absorbance at 350 nm measured after ThT emission measurement.

HT-29 cells = assay: Confocal imaging of labelled peptides in fixed, permeabilised HT-29 cells; assay type: cell-based, human; conditions: 10 nM labelled peptide, 30 min, cells untreated (DMSO), apoptosis (TNF + BV-6) or necroptosis (TSZ), 6 h, washed
Method: HT-29 cells grown in TC treated T175 flasks (Corning^TM) were aspirated, washed once with RT DPBS then trypsinised with 0.3 vol warmed trypsin EDTA for 3–5 min at 37 °C twice. Trypsin was quenched with 0.7 vol warmed D10 and then the mixture was centrifuged 400×g at RT for 5 min. Supernatant was discarded, then cells were resuspended in warm supplemented DMEM. A small sample was diluted 1:10 in trypan blue and loaded onto a haemocytometer for cell counting, then the cell suspension was diluted in warmed DMEM to 8.5 × 10^4 cells/ml. Cells were seeded onto a 96-well clear bottom PhenoPlate (Revvity) coated in a collagen I matrix at 1.7 × 10^4 cells/well and incubated at 37 °C in 5% CO2 overnight.
CellTracker^TM Orange CMRA (Invitrogen) was diluted to 5 μM in DMEM and warmed to 37 °C. HT-29 cells were washed once in DPBS, then CellTracker^TM Orange (50 μl) was added to each well (excluding wells to be incubated with Alexa Fluor 594-labelled control peptide) and incubated at 37 °C in 5% CO2 for 45 min. Following incubation, CellTracker^TM Orange solution was aspirated and replaced with 150 μl D10. […]
Imaging was performed on an Opera Phenix (PerkinElmer) at 63X magnification (water immersion) in confocal mode using the parameters given below. […] Intensity thresholds were adjusted as indicated to remove background fluorescence based on control wells for image exports. […] Cell counts were identified using DAPI stain (Method C) and cytoplasm identified by CellTracker^TM Orange stain (Method B), and all subsequent analysis was conducted on Cy5 fluorescence detected within cells as determined by these parameters. Total Cy5 intensity analysis, as well as spot analysis (spots detected using Method B), was performed measuring number of detected spots, mean spot size (px^2) and spot fluorescence intensity (corrected and relative). […] Statistical significance between untreated, apoptosis and necroptosis induced conditions and between no peptide controls was determined by 2-way ANOVA testing using Tukey’s multiple comparisons tests.

| solubility [1] | SMILES | presence/binding of labelled peptide in fixed, permeabilised cells (HT-29 cells) |
| --- | --- | --- |
| increased solubility | CC(C)C[C@H](NC(=O)[C@H](C)NC(=O)[C@H](Cc1ccc(O)cc1)NC(=O)[C@H](Cc1ccccc1)NC(=O)[C@H](CCCNC(=N)N)NC(=O)[C@H](CCCCN)NC(=O)[C@H](C)NC(=O)[C@H](CCCNC(=N)N)NC(=O)[C@H](CC(C)C)NC(=O)[C@@H](NC(=O)[C@@H]1CSCC(=O)N[C@@H](Cc2ccc(O)cc2)C(=O)N[C@@H](C(C)C)C(=O)N[C@@H](CC(C)C)C(=O)N1)[C@@H](C)O)C(=O)N[C@@H](Cc1ccccc1)C(=O)N[C@@H](CC(C)C)C(=O)N[C@@H](CO)C(=O)NCC(=O)N[C@@H](CCCCN)C(=O)N[C@@H](CCCCN)C(=O)N[C@@H](CCCCN)C(=O)N[C@@H](CCCCN)C(=O)O [A1Ktag] ({CH2CO}-YVLCTLRAKRFYALFLSGKKKK-OH; thioether N-4; C-terminus assumed) | observed inside all cells |
|  | CC[C@H](C)[C@@H]1NC(=O)[C@H](Cc2ccc(O)cc2)NC(=O)CSC[C@@H](C(=O)N[C@@H](Cc2c[nH]c3ccccc23)C(=O)N[C@H](C(=O)N[C@@H](Cc2c[nH]c3ccccc23)C(=O)N[C@@H](CC(C)C)C(=O)N[C@@H](CC(C)C)C(=O)N[C@@H](CO)C(=O)NCC(=O)N[C@@H](CCCCN)C(=O)N[C@@H](CCCCN)C(=O)N[C@@H](CCCCN)C(=O)N[C@@H](CCCCN)C(=O)O)C(C)C)NC(=O)[C@H](CCC(N)=O)NC(=O)[C@H](CC(=O)O)NC(=O)[C@H](Cc2ccc(O)cc2)NC(=O)[C@H](Cc2c[nH]c3ccccc23)NC(=O)[C@H](CCCNC(=N)N)NC(=O)[C@H](CC(C)C)NC(=O)[C@H](C(C)C)NC(=O)[C@H](CCC(=O)O)NC1=O [A4Ktag] ({CH2CO}-YIEVLRWYDQCWVWLLSGKKKK-OH; thioether N-11; C-terminus assumed) | observed inside all cells |
|  | CC[C@H](C)[C@@H]1NC(=O)[C@H](Cc2ccc(O)cc2)NC(=O)[C@H](CCCNC(=N)N)NC(=O)[C@H](CO)NC(=O)[C@H](Cc2c[nH]c3ccccc23)NC(=O)[C@@H]2CCCN2C(=O)[C@H](C(C)C)NC(=O)[C@H](CC(N)=O)NC(=O)[C@H](Cc2ccccc2)NC(=O)[C@H](Cc2ccc(O)cc2)NC(=O)CSC[C@@H](C(=O)NCC(=O)N[C@@H](CCCCN)C(=O)N[C@@H](CCCCN)C(=O)N[C@@H](CCCCN)C(=O)N[C@@H](CCCCN)C(=O)O)NC(=O)[C@H](Cc2ccc(O)cc2)NC(=O)[C@H](Cc2ccc(O)cc2)NC(=O)[C@H](C(C)C)NC(=O)[C@H](CO)NC(=O)[C@H](CC(C)C)NC1=O [A2Ktag] ({CH2CO}-YFNVPWSRYILSVYYCGKKKK-OH; thioether N-16; C-terminus assumed) | observed inside all cells |
